Measurements taken from ChEMBL document CHEMBL4808179 (Bioorg Med Chem Lett, 2021).
In brackets after ≈: the same amount, converted by molar mass.

How the values were obtained:
Enterococcus faecium [1] = experiment: Antibacterial activity against vancomycin resistant Enterococcus faecium Van M HS-08267 assessed as inhibition of bacterial growth; format: functional
Enterococcus faecium [2] = experiment: Antibacterial activity against vancomycin resistant Enterococcus faecium Van B V(R) assessed as inhibition of bacterial growth; format: functional
Staphylococcus aureus [3] = experiment: Antibacterial activity against vancomycin-intermediate Staphylococcus aureus Mu50 assessed as bacterial growth inhibition; format: functional
Staphylococcus aureus [4] = experiment: Antibacterial activity against methicillin-susceptible Staphylococcus aureus Newman assessed as bacterial growth inhibition; format: functional
Enterococcus faecium [5] = experiment: Antibacterial activity against vancomycin resistant Enterococcus faecium Van A HS-0649 assessed as inhibition of bacterial growth; format: functional
Staphylococcus aureus [6] = experiment: Antibacterial activity against methicillin-resistant Staphylococcus aureus HS-663 assessed as bacterial growth inhibition; format: functional
Enterococcus faecium [7] = experiment: Antibacterial activity against vancomycin resistant Enterococcus faecium Van A HS-06188 assessed as inhibition of bacterial growth; format: functional
Enterococcus faecium [8] = experiment: Antibacterial activity against vancomycin resistant Enterococcus faecium Van M HS-0847 assessed as inhibition of bacterial growth; format: functional
Acinetobacter baumannii = experiment: Antibacterial activity against Acinetobacter baumannii assessed as bacterial growth inhibition; format: functional
Escherichia coli = experiment: Antibacterial activity against Escherichia coli AB1157 assessed as bacterial growth inhibition; format: functional
Staphylococcus aureus [9] = experiment: Antibacterial activity against methicillin-resistant Staphylococcus aureus USA300 assessed as bacterial growth inhibition; format: functional
L02 = experiment: Cytotoxicity against human L02 cells assessed as reduction in cell viability >= 12.5 uM; format: cell-based
Enterococcus faecium [10] = experiment: Potency index, ratio of Vancomycin MIC to test compound MIC for antibacterial activity against vancomycin resistant Enterococcus faecium Van B V(R) assessed as inhibition of bacterial growth; format: functional
Enterococcus faecium [11] = experiment: Potency index, ratio of Vancomycin MIC to test compound MIC for antibacterial activity against vancomycin resistant Enterococcus faecium Van M HS-08267 assessed as inhibition of bacterial growth; format: functional
Enterococcus faecium [12] = experiment: Potency index, ratio of Vancomycin MIC to test compound MIC for antibacterial activity against vancomycin resistant Enterococcus faecium Van A HS-06188 assessed as inhibition of bacterial growth; format: functional
Enterococcus faecium [13] = experiment: Potency index, ratio of Vancomycin MIC to test compound MIC for antibacterial activity against vancomycin resistant Enterococcus faecium Van M HS-0847 assessed as inhibition of bacterial growth; format: functional

SMILES	MIC (Enterococcus faecium [1]) [µg/mL]	MIC (Enterococcus faecium [2]) [µg/mL]	MIC (Staphylococcus aureus [3]) [µg/mL]	MIC (Staphylococcus aureus [4]) [µg/mL]	MIC (Enterococcus faecium [5]) [µg/mL]	MIC (Staphylococcus aureus [6]) [µg/mL]	MIC (Enterococcus faecium [7]) [µg/mL]	MIC (Enterococcus faecium [8]) [µg/mL]	MIC (Acinetobacter baumannii) [µg/mL]	MIC (Escherichia coli) [µg/mL]	MIC (Staphylococcus aureus [9]) [µg/mL]	Activity (L02)	Ratio (Enterococcus faecium [10])	Ratio (Enterococcus faecium [11])	Ratio (Enterococcus faecium [12])	Ratio (Enterococcus faecium [13])
CN[C@H](CC(C)C)C(=O)N[C@H]1C(=O)N[C@@H](CC(N)=O)C(=O)N[C@H]2C(=O)N[C@H]3C(=O)N[C@H](C(=O)N[C@H](C(=O)NNCc4ccccc4)c4cc(O)cc(O)c4-c4cc3ccc4O)[C@H](O)c3ccc(c(Cl)c3)Oc3cc2cc(c3O[C@@H]2O[C@H](CO)[C@@H](O)[C@H](O)[C@H]2O[C@H]2C[C@](C)(N)[C@H](O)[C@H](C)O2)Oc2ccc(cc2Cl)[C@H]1O	32 (≈ 20.6 µM)	128 (≈ 82.4 µM)	4 (≈ 2.57 µM)	1 (≈ 0.644 µM)	128 (≈ 82.4 µM)	0.25 (≈ 0.161 µM)	64 (≈ 41.2 µM)	64 (≈ 41.2 µM)	> 128	> 128	1 (≈ 0.644 µM)					
CN[C@H](CC(C)C)C(=O)N[C@H]1C(=O)N[C@@H](CC(N)=O)C(=O)N[C@H]2C(=O)N[C@H]3C(=O)N[C@H](C(=O)N[C@H](C(=O)O)c4cc(O)cc(O)c4-c4cc3ccc4O)[C@H](O)c3ccc(c(Cl)c3)Oc3cc2cc(c3O[C@@H]2O[C@H](CO)[C@@H](O)[C@H](O)[C@H]2O[C@H]2C[C@](C)(N)[C@H](O)[C@H](C)O2)Oc2ccc(cc2Cl)[C@H]1O [VANCOMYCIN]			8 (≈ 5.52 µM)			0.25 (≈ 0.173 µM)		64 (≈ 44.2 µM)								
CN[C@H](CC(C)C)C(=O)N[C@H]1C(=O)N[C@@H](CC(N)=O)C(=O)N[C@H]2C(=O)N[C@H]3C(=O)N[C@H](C(=O)N[C@H](C(=O)N[C@@H](CS)C(=O)N[C@@H](CCCNC(=N)N)C(=O)N[C@@H](CCCCN)C(=O)N[C@H](C(=O)N[C@@H](CCCNC(=N)N)C(=O)NCC(=O)N4CCC[C@H]4C(=O)N4CCC[C@H]4C(=O)O)C(C)C)c4cc(O)cc(O)c4-c4cc3ccc4O)[C@H](O)c3ccc(c(Cl)c3)Oc3cc2cc(c3O[C@@H]2O[C@H](CO)[C@@H](O)[C@H](O)[C@H]2O[C@H]2C[C@](C)(N)[C@H](O)[C@H](C)O2)Oc2ccc(cc2Cl)[C@H]1O	32 (≈ 13.7 µM)	16 (≈ 6.83 µM)	64 (≈ 27.3 µM)	32 (≈ 13.7 µM)		16 (≈ 6.83 µM)	16 (≈ 6.83 µM)	32 (≈ 13.7 µM)	> 128	> 128	16 (≈ 6.83 µM)					
CC[C@H](C)[C@H](NC(=O)[C@H](CCCCN)NC(=O)[C@@H](NC(=O)[C@H](CC(N)=O)NC(=O)[C@H](CS)NC(=O)[C@H]1NC(=O)[C@H]2NC(=O)[C@H](NC(=O)[C@@H]3NC(=O)[C@H](CC(N)=O)NC(=O)[C@H](NC(=O)[C@@H](CC(C)C)NC)[C@H](O)c4ccc(c(Cl)c4)Oc4cc3cc(c4O[C@@H]3O[C@H](CO)[C@@H](O)[C@H](O)[C@H]3O[C@H]3C[C@](C)(N)[C@H](O)[C@H](C)O3)Oc3ccc(cc3Cl)[C@H]2O)c2ccc(O)c(c2)-c2c(O)cc(O)cc21)[C@@H](C)CC)C(=O)N[C@@H](CO)C(=O)NCC(=O)N[C@@H](CCCCN)C(=O)N[C@@H](Cc1c[nH]c2ccccc12)C(=O)N[C@@H](CCCCN)C(=O)N[C@@H](C)C(=O)N[C@@H](CCC(N)=O)C(=O)N[C@@H](CCCCN)C(=O)N[C@@H](CCCNC(=N)N)C(=O)N[C@@H](Cc1ccccc1)C(=O)N[C@@H](CC(C)C)C(=O)O	32 (≈ 9.55 µM)	32 (≈ 9.55 µM)	32 (≈ 9.55 µM)	32 (≈ 9.55 µM)		16 (≈ 4.77 µM)	64 (≈ 19.1 µM)	32 (≈ 9.55 µM)	> 128	> 128	32 (≈ 9.55 µM)					
CN[C@H](CC(C)C)C(=O)N[C@H]1C(=O)N[C@@H](CC(N)=O)C(=O)N[C@H]2C(=O)N[C@H]3C(=O)N[C@H](C(=O)N[C@H](C(=O)N[C@@H](CCCNC(=N)N)C(N)=O)c4cc(O)cc(O)c4-c4cc3ccc4O)[C@H](O)c3ccc(c(Cl)c3)Oc3cc2cc(c3O[C@@H]2O[C@H](CO)[C@@H](O)[C@H](O)[C@H]2O[C@H]2C[C@](C)(N)[C@H](O)[C@H](C)O2)Oc2ccc(cc2Cl)[C@H]1O	64 (≈ 39.9 µM)	64 (≈ 39.9 µM)	2 (≈ 1.25 µM)	2 (≈ 1.25 µM)	64 (≈ 39.9 µM)	0.25 (≈ 0.156 µM)	64 (≈ 39.9 µM)	64 (≈ 39.9 µM)	> 128	32 (≈ 19.9 µM)		Toxic				
CN[C@H](CC(C)C)C(=O)N[C@H]1C(=O)N[C@@H](CC(N)=O)C(=O)N[C@H]2C(=O)N[C@H]3C(=O)N[C@H](C(=O)N[C@H](C(=O)N/N=C/c4ccc(-c5ccc(C(F)(F)F)cc5)cc4)c4cc(O)cc(O)c4-c4cc3ccc4O)[C@H](O)c3ccc(c(Cl)c3)Oc3cc2cc(c3O[C@@H]2O[C@H](CO)[C@@H](O)[C@H](O)[C@H]2O[C@H]2C[C@](C)(N)[C@H](O)[C@H](C)O2)Oc2ccc(cc2Cl)[C@H]1O	2 (≈ 1.18 µM)	1 (≈ 0.59 µM)	2 (≈ 1.18 µM)	1 (≈ 0.59 µM)	4 (≈ 2.36 µM)	0.0625 (≈ 0.0369 µM)	4 (≈ 2.36 µM)	4 (≈ 2.36 µM)	> 128	> 128	0.5 (≈ 0.295 µM)		8	8	8	8
CN[C@H](CC(C)C)C(=O)N[C@H]1C(=O)N[C@@H](CC(N)=O)C(=O)N[C@H]2C(=O)N[C@H]3C(=O)N[C@H](C(=O)N[C@H](C(=O)N[C@@H](CCCNC(=N)N)C(=O)O)c4cc(O)cc(O)c4-c4cc3ccc4O)[C@H](O)c3ccc(c(Cl)c3)Oc3cc2cc(c3O[C@@H]2O[C@H](CO)[C@@H](O)[C@H](O)[C@H]2O[C@H]2C[C@](C)(N)[C@H](O)[C@H](C)O2)Oc2ccc(cc2Cl)[C@H]1O	128 (≈ 79.7 µM)	64 (≈ 39.9 µM)	64 (≈ 39.9 µM)	8 (≈ 4.98 µM)	> 128	0.5 (≈ 0.311 µM)	128 (≈ 79.7 µM)	128 (≈ 79.7 µM)	> 128	> 128	4 (≈ 2.49 µM)	Toxic				
CN[C@H](CC(C)C)C(=O)N[C@H]1C(=O)N[C@@H](CC(N)=O)C(=O)N[C@H]2C(=O)N[C@H]3C(=O)N[C@H](C(=O)N[C@H](C(=O)N/N=C/c4ccccc4)c4cc(O)cc(O)c4-c4cc3ccc4O)[C@H](O)c3ccc(c(Cl)c3)Oc3cc2cc(c3O[C@@H]2O[C@H](CO)[C@@H](O)[C@H](O)[C@H]2O[C@H]2C[C@](C)(N)[C@H](O)[C@H](C)O2)Oc2ccc(cc2Cl)[C@H]1O	64 (≈ 41.3 µM)	128 (≈ 82.5 µM)	16 (≈ 10.3 µM)	2 (≈ 1.29 µM)	128 (≈ 82.5 µM)	0.5 (≈ 0.322 µM)	128 (≈ 82.5 µM)	64 (≈ 41.3 µM)	> 128	> 128	2 (≈ 1.29 µM)	Toxic				
CN[C@H](CC(C)C)C(=O)N[C@H]1C(=O)N[C@@H](CC(N)=O)C(=O)N[C@H]2C(=O)N[C@H]3C(=O)N[C@H](C(=O)N[C@H](C(=O)NNCc4ccc(-c5ccc(C(F)(F)F)cc5)cc4)c4cc(O)cc(O)c4-c4cc3ccc4O)[C@H](O)c3ccc(c(Cl)c3)Oc3cc2cc(c3O[C@@H]2O[C@H](CO)[C@@H](O)[C@H](O)[C@H]2O[C@H]2C[C@](C)(N)[C@H](O)[C@H](C)O2)Oc2ccc(cc2Cl)[C@H]1O	2 (≈ 1.18 µM)	4 (≈ 2.36 µM)	2 (≈ 1.18 µM)	1 (≈ 0.589 µM)	8 (≈ 4.71 µM)	0.0625 (≈ 0.0368 µM)	8 (≈ 4.71 µM)	4 (≈ 2.36 µM)	64 (≈ 37.7 µM)	> 128	0.5 (≈ 0.295 µM)		8	8	8	8
